19 compounds from paper PMC6886403, “Structure-Based and Molecular Modeling Studies for the Discovery of Cyclic Imides as Reversible Cruzain Inhibitors With Potent Anti-Trypanosoma cruzi Activity” (Frontiers in Chemistry, 2019) can be followed below.

SMILES strings stand for the structures. A value given as a limit tells only on which side of the number the result lay.

One assay addresses T1, cruzain (Trypanosoma cruzi, UniProt P25779).
T1 construct: inferred from Ni-NTA purification of the pro-enzyme; made in house; host or cells: Escherichia coli (M15)
Nature of the assay: Cruzain inhibition assay (cleavage of fluorogenic substrate Z-Phe-Arg-AMC). As to conditions: for inhibition at 100 µM: at 100 μM inhibitor, mean of three measurements, read-out: Percent inhibition against cruzain; for IC50: mean ± SD of three individual experiments, at least six inhibitor concentrations in triplicate, 1.5 nM cruzain, 5.0 μM Z-Phe-Arg-AMC, pH 5.5; for decrease in potency against cruzain relative to 3a: less active than 3a. It counts as biochemical. On the procedure: The catalytic activity of cruzain was monitored by cleavage of the fluorogenic substrate Z-Phe-Arg-aminomethyl coumarin (Z-Phe-Arg-AMC) as previously described (Ferreira et al., [2014]). The enzyme kinetics assays were performed in 0.1 M sodium acetate buffer (pH 5.5) with 5 mM dithiothreitol (DTT) and 0.01% Triton X-100. […] The enzyme reaction was monitored for 5 min at 30°C in 96-well black flat bottom plates, and the activity was calculated based on the initial rates compared with a control (DMSO). Wavelengths of 355 nm for excitation and 460 nm for emission were used. IC50 values were independently determined by determining rate measurements for at least six inhibitor concentrations, each evaluated in triplicate. To determine the mechanism of inhibition, eight substrate concentrations and four inhibitor concentrations were used, each in triplicate. The mechanism of inhibition was determined by Lineweaver-Burk plots. SigmaPlot 10.0 (Systat Software Inc., Erkrath, Germany) was used to determine the IC50 values.

The test system of assay [1] is T. cruzi intracellular amastigotes. The experiment in a line: T. cruzi intracellular amastigote assay (Tulahuen lacZ strain, CPRG readout). It counts as cell-based, Trypanosoma cruzi. As to conditions: intracellular amastigotes; for IC50: Trypanosoma cruzi, Tulahuen strain in HFF-1 fibroblasts, 120 h, mean ± SD of two experiments, read-out: IC50 T. cruzi. As for the experimental part: In vitro assays against T. cruzi were performed as described previously (Ferreira et al., [2014]). The T. cruzi Tulahuen strain, which expresses the E. coli β-galactosidase gene lacZ (Buckner et al., [1996]), was provided by Frederick S. Buckner (University of Washington, Seattle, WA). Stock solutions of the synthesized compounds were prepared in 100% DMSO. Epimastigotes were grown in liver infusion tryptone (LIT) supplemented with 10% fetal calf serum (FCS), penicillin and streptomycin (28°C). Metacyclogenesis from epimastigotes to trypomastigotes was induced by incubation of the epimastigotes in Grace's insect medium (Sigma-Aldrich, St. Louis, MO) supplemented with 10% FCS (28°C). HFF-1 human fibroblasts were seeded at 2 × 10^3/well (80 μL) in 96-well tissue culture plates in RPMI 1640 without phenol red supplemented with 10% FCS and incubated overnight (37°C, 5% CO2). Next, trypomastigotes were added at 1.0 × 10^4/well (20 μL), and the plates were incubated (37°C, 5% CO2). After 24 h, 3-fold serial dilutions (50 μL) of the synthesized compounds were added at concentrations ranging from 0.1 to 100 μM, and the plates were incubated (37°C, 5% CO2). Each compound concentration was evaluated in triplicate. All plates included BZ (Sigma-Aldrich) as a positive control and untreated wells (100% growth) as a negative control. After 120 h, 50 μL of chlorophenol red β-D-galactopyranoside (CPRG, Sigma-Aldrich) and IGEPAL CA-630 (Sigma-Aldrich) (0.1%) was added to each well. The absorbance was measured at 570 nm in an automated microplate reader, and the data were transferred to SigmaPlot 10.0 (Systat Software Inc.) for IC50 value calculation.

T1 sequence (P25779 123-337 limits assumed): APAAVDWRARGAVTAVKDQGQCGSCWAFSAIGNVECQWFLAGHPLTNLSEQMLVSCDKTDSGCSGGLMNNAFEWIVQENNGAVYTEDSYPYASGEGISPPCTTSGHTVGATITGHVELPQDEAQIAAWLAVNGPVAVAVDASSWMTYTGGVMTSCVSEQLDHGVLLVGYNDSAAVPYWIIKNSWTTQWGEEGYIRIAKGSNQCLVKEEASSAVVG

What is called inhibition is the percentage by which the read-out fell short of the control. A word on the IC50: it is the concentration that gives 50% inhibition. `COc1ccc(NC(=O)COC(=O)[C@H](CC(C)C)N2C(=O)C3CC=CCC3C2=O)cc1Cl` (stereo partly drawn) [3a, 2-((3-chloro-4-methoxyphenyl)amino)-2-oxoethyl (2S)-2-(1,3-dioxo-1,3,3a,4,7,7a-hexahydro-2H-isoindol-2-yl)-4-methylpentanoate]: at cruzain, the inhibition at 100 µM is 88% and the IC50 was 2.2 ± 0.4 µM. In addition, in assay [1], the IC50 is over 100 µM and the “activity against T. cruzi (in words)” value is recorded as “not active”.

Take `COc1ccc(NC(=O)COC(=O)[C@H](CC(C)C)N2C(=O)C3CC=CCC3C2=O)cc1` (stereo partly drawn) [3b, 2-((4-methoxyphenyl)amino)-2-oxoethyl (2S)-2-(1,3-dioxo-1,3,3a,4,7,7a-hexahydro-2H-isoindol-2-yl)-4-methylpentanoate]: on cruzain, the inhibition at 100 µM was 86% and the IC50 amounted to 13.9 µM.

`CC(C)C[C@@H](C(=O)OCC(=O)Nc1cccc(Cl)c1)N1C(=O)C2CC=CCC2C1=O` (stereo partly drawn) [3c, 2-((3-chlorophenyl)amino)-2-oxoethyl (2S)-2-(1,3-dioxo-1,3,3a,4,7,7a-hexahydro-2H-isoindol-2-yl)-4-methylpentanoate]: on cruzain, the inhibition at 100 µM turned out to be 67% and it took 40.1 µM to reach half-maximal inhibition (IC50).

`CC(C)C[C@@H](C(=O)OCC(=O)Nc1ccccc1)N1C(=O)C2CC=CCC2C1=O` (stereo partly drawn) [3d, 2-oxo-2-(phenylamino)ethyl (2S)-2-(1,3-dioxo-1,3,3a,4,7,7a-hexahydro-2H-isoindol-2-yl)-4-methylpentanoate]: on cruzain, the inhibition at 100 µM was 76%, the “decrease in potency against cruzain relative to 3a” value stood at 8 fold and the IC50 came out at 16.7 ± 1.3 µM. The IC50 in assay [1] was over 100 µM.

Consider `CC(C)C[C@@H](C(=O)OCC(=O)Nc1ccc(F)cc1)N1C(=O)C2CC=CCC2C1=O` (stereo partly drawn) [3e, 2-((4-fluorophenyl)amino)-2-oxoethyl (2S)-2-(1,3-dioxo-1,3,3a,4,7,7a-hexahydro-2H-isoindol-2-yl)-4-methylpentanoate], for which, on cruzain, the inhibition at 100 µM turned out to be 74% and half-maximal inhibition (IC50) required 20.5 ± 1.3 µM. Further, the 50% inhibitory concentration (IC50) in assay [1] was over 100 µM.

With `CC(C)C[C@@H](C(=O)OCC(=O)Nc1ccc(Br)cc1)N1C(=O)C2CC=CCC2C1=O` (stereo partly drawn) [3f, 2-((4-bromophenyl)amino)-2-oxoethyl (2S)-2-(1,3-dioxo-1,3,3a,4,7,7a-hexahydro-2H-isoindol-2-yl)-4-methylpentanoate], the inhibition at 100 µM on cruzain stood at 53%.

Take `CC(C)C[C@@H](C(=O)OCC(=O)Nc1ccc(Cl)cc1)N1C(=O)C2CC=CCC2C1=O` (stereo partly drawn) [3g, 2-((4-chlorophenyl)amino)-2-oxoethyl (2S)-2-(1,3-dioxo-1,3,3a,4,7,7a-hexahydro-2H-isoindol-2-yl)-4-methylpentanoate]: the inhibition at 100 µM at cruzain was determined as 56%.

Consider `CC(C)C[C@@H](C(=O)OCC(=O)Nc1ccc(O)cc1)N1C(=O)C2CC=CCC2C1=O` (stereo partly drawn) [3h, 2-((4-hydroxyphenyl)amino)-2-oxoethyl (2S)-2-(1,3-dioxo-1,3,3a,4,7,7a-hexahydro-2H-isoindol-2-yl)-4-methylpentanoate], for which the inhibition at 100 µM at cruzain was determined as 6%.

Take `CC(C)C[C@@H](C(=O)OCC(=O)Nc1ccc(F)c([N+](=O)[O-])c1)N1C(=O)C2CC=CCC2C1=O` (stereo partly drawn) [3j, 2-((4-fluoro-3-nitrophenyl)amino)-2-oxoethyl (2S)-2-(1,3-dioxo-1,3,3a,4,7,7a-hexahydro-2H-isoindol-2-yl)-4-methylpentanoate]: on cruzain, the inhibition at 100 µM was determined as 56%.

In the case of `CC(C)CC(C(=O)OCC(=O)Nc1ccc([N+](=O)[O-])cc1)N1C(=O)C2CC=CCC2C1=O` (stereo not drawn) [3l], on cruzain, the inhibition at 100 µM was found to be 67%.

As to `COc1ccc(NC(=O)COC(=O)C(CC(C)C)N2C(=O)C3CC=CCC3C2=O)c([N+](=O)[O-])c1` (stereo not drawn) [3m], at cruzain, the inhibition at 100 µM was found to be 53%.

Regarding `COc1ccc(NC(=O)COC(=O)[C@H](CC(C)C)N2C(=O)c3ccccc3C2=O)cc1Cl` [10a, 2-((3-chloro-4-methoxyphenyl)amino)-2-oxoethyl (S)-2-(1,3-dioxoisoindolin-2-yl)-4-methylpentanoate], at cruzain, the inhibition at 100 µM turned out to be 39%.

Take `COc1ccc(NC(=O)COC(=O)[C@H](CC(C)C)N2C(=O)C3CCCCC3C2=O)cc1Cl` (stereo partly drawn) [10b, 2-((3-chloro-4-methoxyphenyl)amino)-2-oxoethyl (2S)-2-(1,3-dioxooctahydro-2H-isoindol-2-yl)-4-methylpentanoate]: at cruzain, the inhibition at 100 µM was 75%, the “decrease in potency against cruzain relative to 3a” value was found to be 2 fold and the IC50 came out at 4.2 ± 1.5 µM. In addition, the 50% inhibitory concentration (IC50) in assay [1] is over 100 µM.

For `COc1ccc(NC(=O)COC(=O)CN2C(=O)C3CC=CCC3C2=O)cc1Cl` (stereo not drawn) [10g, 2-((3-chloro-4-methoxyphenyl)amino)-2-oxoethyl 2-(1,3-dioxo-1,3,3a,4,7,7a-hexahydro-2H-isoindol-2-yl)acetate], at cruzain, the “activity against cruzain (in words)” value was “inactive” and the inhibition at 100 µM was 0%.

Turning to `COc1ccc(NC(=O)COC(=O)[C@H](Cc2ccccc2)N2C(=O)C3CC=CCC3C2=O)cc1Cl` (stereo partly drawn) [10h, 2-((3-chloro-4-methoxyphenyl)amino)-2-oxoethyl (2S)-2-(1,3-dioxo-1,3,3a,4,7,7a-hexahydro-2H-isoindol-2-yl)-3-phenylpropanoate], on cruzain, the “activity against cruzain (in words)” value is on record as “active”, the inhibition at 100 µM worked out at 96% and inhibition was half-maximal at 1.4 ± 0.8 µM (IC50). For the same compound, on cruzain (Lineweaver-Burk plots, eight substrate and four inhibitor concentrations), the mechanism of inhibition entry was “competitive”. Also, the “increase in potency against cruzain relative to 3a” value at cruzain (more active than 3a) amounted to 2 fold. Moreover, in assay [1], the IC50 was over 100 µM and the “activity against T. cruzi (in words)” value is “inactive”.

`COc1ccc(NC(=O)COC(=O)C(Cc2ccccc2)N2C(=O)C3CC=CCC3C2=O)cc1Cl` (stereo not drawn) [10hrac, 2-((3-chloro-4-methoxyphenyl)amino)-2-oxoethyl 2-(1,3-dioxo-1,3,3a,4,7,7a-hexahydro-2H-isoindol-2-yl)-3-phenylpropanoate] showed an IC50 against cruzain of 1.16 µM.

Regarding `COc1ccc(NC(=O)COC(=O)[C@@H](Cc2ccc3ccccc3c2)N2C(=O)C3CC=CCC3C2=O)cc1Cl` (stereo partly drawn) [10i, 2-((3-chloro-4-methoxyphenyl)amino)-2-oxoethyl (2R)-2-(1,3-dioxo-1,3,3a,4,7,7a-hexahydro-2H-isoindol-2-yl)-3-(naphthalen-2-yl)propanoate], the inhibition at 100 µM at cruzain amounted to 58%.

On to `COc1ccc(NC(=O)COC(=O)[C@H](CC(C)C)N2CCCC2)cc1Cl` [10k, 2-((3-chloro-4-methoxyphenyl)amino)-2-oxoethyl (S)-4-methyl-2-(pyrrolidin-1-yl)pentanoate], for which, on cruzain, the “activity against cruzain (in words)” value is “inactive” and the inhibition at 100 µM came to 6%. In assay [1], the IC50 is over 100 µM and the “activity against T. cruzi (in words)” value was “inactive”.

In the case of `COc1ccc(NC(=O)CNC(=O)C(CC(C)C)N2C(=O)C3CC=CCC3C2=O)cc1Cl` (stereo not drawn) [compound 5, N-(2-((3-chloro-4-methoxyphenyl)amino)-2-oxoethyl)-2-(1,3-dioxo-1,3,3a,4,7,7a-hexahydro-2H-isoindol-2-yl)-4-methylpentanamide], at cruzain, the inhibition at 100 µM is 38%.
